Measured values taken from paper PMC6213879, “Synthesis and Biological Evaluation of Novel Dehydroabietic Acid-Oxazolidinone Hybrids for Antitumor Properties” (International Journal of Molecular Sciences, 2018).

Assays:
[1] = system: SK-OV-3 human ovarian carcinoma cell line; assay: MTT cytotoxicity assay, SK-OV-3; format: cell-based; conditions: mean ± SD from three independent experiments
Procedure: (§1) The in vitro antiproliferative activity of the DHAA derivatives 3a–o and 4a–o against four human cancer cell lines (MGC-803 human gastric cancer cell line, CNE-2 human nasopharyngeal carcinoma cell line, SK-OV-3 human ovarian carcinoma cell line, NCI-H460 human lung cancer cell line) and the human normal liver cell line LO2 were evaluated by MTT (methyl thiazolytetrazolium) assay and compared with the parent compound DHAA and the positive control cisplatin in each panel.
(§2) The cytotoxicity of the compounds was evaluated against NCI-H460, MGC-803, SK-OV-3, CNE-2 and LO2 using an MTT assay. Cells were grown on 96-well micro-plates at a density of 4 × 10^3 cells per well in DMEM (dulbecco’s modified eagle medium) medium with 10% FBS (fetal bovine serum). The plates were incubated at 37 °C with 5% CO2. The cells were then exposed to different concentrations of target compounds and cisplatin and incubated for another 48 h. Control wells were formed by culture media with the maximum concentration of DMSO used in each assay (1‰). The cells were stained with 20 µL of MTT in an incubator for about 4 h. The medium was thrown away and replaced by […] DMSO. The absorbance (OD) value was read at 490 nm on an enzyme labeling instrument. Each experiment was repeated at least three times to obtain the mean values.

[2] = system: MGC-803 human gastric cancer cell line; assay: MTT cytotoxicity assay, MGC-803; format: cell-based; conditions: mean ± SD from three independent experiments
Procedure: as §1, §2

[3] = system: NCI-H460 human lung cancer cell line; assay: MTT cytotoxicity assay, NCI-H460; format: cell-based; conditions: mean ± SD from three independent experiments
Procedure: as §1, §2

[4] = system: human normal liver cell line LO2; assay: MTT cytotoxicity assay, normal LO2 cells; format: cell-based; conditions: mean ± SD from three independent experiments
Procedure: as §1, §2

[5] = system: CNE-2 human nasopharyngeal carcinoma cell line; assay: MTT cytotoxicity assay, CNE-2; format: cell-based; conditions: mean ± SD from three independent experiments
Procedure: as §1, §2

melting point	SMILES	IC50 ([1]; Homo sapiens, SK-OV-3, 48 h)	IC50 ([2]; Homo sapiens, MGC-803, 48 h)	IC50 ([3]; Homo sapiens, NCI-H460, 48 h)	IC50 ([4]; Homo sapiens, L02, 48 h)	IC50 ([5]; Homo sapiens, CNE-2, 48 h)	IC50 ([1]; 48 h)	IC50 ([2]; 48 h)	IC50 ([3]; 48 h)	IC50 ([4]; 48 h)	IC50 ([5]; 48 h)
	Cc1ccccc1N1CC(COC(=O)[C@]2(C)CCC[C@]3(C)c4ccc(C(C)C)cc4CCC23)OC1=O (stereo partly drawn) [Compound 4b, (1R,4aS)-(3-(2-Methylphenyl)-2-Oxooxazolidin-5-yl)Methyl-7-Isopropyl-1,4a-Dimethyl-1,2,3,4,4a,9,10,10a-Octahydrophenanthrene-1-Carboxylate]	> 100 µM	25 ± 5.02 µM	27.7 ± 5.03 µM	> 100 µM	> 100 µM					
	Cc1cccc(N2CC(COC(=O)[C@]3(C)CCC[C@]4(C)c5ccc(C(C)C)cc5CCC34)OC2=O)c1 (stereo partly drawn) [Compound 4c, (1R,4aS)-(3-(3-Methylphenyl)-2-Oxooxazolidin-5-yl)Methyl-7-Isopropyl-1,4a-Dimethyl-1,2,3,4,4a,9,10,10a-Octahydrophenanthrene-1-Carboxylate]	> 100 µM	10.5 ± 1.44 µM	9.13 ± 2.77 µM	36.2 ± 2.68 µM	31.96 ± 0.23 µM					
	Cc1ccc(N2CC(COC(=O)[C@]3(C)CCC[C@]4(C)c5ccc(C(C)C)cc5CCC34)OC2=O)cc1 (stereo partly drawn) [Compound 4d, (1R,4aS)-(3-(4-Methylphenyl)-2-Oxooxazolidin-5-yl)Methyl-7-Isopropyl-1,4a-Dimethyl-1,2,3,4,4a,9,10,10a-Octahydrophenanthrene-1-Carboxylate]	19.7 ± 1.33 µM	5.97 ± 0.87 µM	2.91 ± 2.38 µM	30.6 ± 1.99 µM	21.1 ± 1.96 µM					
	COc1ccccc1N1CC(COC(=O)[C@]2(C)CCC[C@]3(C)c4ccc(C(C)C)cc4CCC23)OC1=O (stereo partly drawn) [Compound 4e, (1R,4aS)-(3-(2-Methoxyphenyl)-2-Oxooxazolidin-5-yl)Methyl-7-Isopropyl-1,4a-Dimethyl-1,2,3,4,4a,9,10,10a-Octahydrophenanthrene-1-Carboxylate]	> 100 µM	13.2 ± 1.15 µM	7.99 ± 6.35 µM	40.6 ± 1.96 µM	20.5 ± 0.97 µM					
	COc1cccc(N2CC(COC(=O)[C@]3(C)CCC[C@]4(C)c5ccc(C(C)C)cc5CCC34)OC2=O)c1 (stereo partly drawn) [Compound 4f, (1R,4aS)-(3-(3-Methoxyphenyl)-2-Oxooxazolidin-5-yl)Methyl-7-Isopropyl-1,4a-Dimethyl-1,2,3,4,4a,9,10,10a-Octahydrophenanthrene-1-Carboxylate]	43 ± 1.05 µM	19.7 ± 2.8 µM	17.2 ± 1.38 µM	> 100 µM	23.5 ± 1.2 µM					
	COc1ccc(N2CC(COC(=O)[C@]3(C)CCC[C@]4(C)c5ccc(C(C)C)cc5CCC34)OC2=O)cc1 (stereo partly drawn) [Compound 4g, (1R,4aS)-(3-(4-Methoxyphenyl)-2-Oxooxazolidin-5-yl)Methyl-7-Isopropyl-1,4a-Dimethyl-1,2,3,4,4a,9,10,10a-Octahydrophenanthrene-1-Carboxylate]	4.1 ± 2.45 µM	6.1 ± 0.35 µM	14.1 ± 8.04 µM	26.36 ± 0.15 µM	19.8 ± 0.3 µM					
	CC(C)c1ccc2c(c1)CCC1[C@](C)(C(=O)OCC3CN(c4ccccc4F)C(=O)O3)CCC[C@]21C (stereo partly drawn) [Compound 4h, (1R,4aS)-(3-(2-Fluorophenyl)-2-Oxooxazolidin-5-yl)Methyl-7-Isopropyl-1,4a-Dimethyl-1,2,3,4,4a, 9,10,10a-Octahydrophenanthrene-1-Carboxylate]	> 100 µM	49.9 ± 1.14 µM	> 100 µM	> 100 µM	> 100 µM					
	CC(C)c1ccc2c(c1)CCC1[C@](C)(C(=O)OCC3CN(c4cccc(F)c4)C(=O)O3)CCC[C@]21C (stereo partly drawn) [Compound 4i, (1R,4aS)-(3-(3-Fluorophenyl)-2-Oxooxazolidin-5-yl)Methyl-7-Isopropyl-1,4a-Dimethyl-1,2,3,4,4a, 9,10,10a-Octahydrophenanthrene-1-Carboxylate]	9.86 ± 4.3 µM	11.5 ± 0.25 µM	25.1 ± 4.5 µM	> 100 µM	28 ± 3.95 µM					
	CC(C)c1ccc2c(c1)CCC1[C@](C)(C(=O)OCC3CN(c4cccc(Cl)c4)C(=O)O3)CCC[C@]21C (stereo partly drawn) [Compound 4k, (1R,4aS)-(3-(3-Chlorophenyl)-2-Oxooxazolidin-5-yl)Methyl-7-Isopropyl-1,4a-Dimethyl-1,2,3,4,4a,9,10,10a-Octahydrophenanthrene-1-Carboxylate]	10.3 ± 5.46 µM	7.43 ± 1.42 µM	23 ± 2.62 µM	37.2 ± 3.14 µM	31.2 ± 2.5 µM					
170.6 to 172.5 °C	CC(C)c1ccc2c(c1)CCC1[C@](C)(C(=O)OCC3CN(c4ccc(Cl)cc4)C(=O)O3)CCC[C@]21C (stereo partly drawn) [Compound 4l, (1R,4aS)-(3-(4-Chlorophenyl)-2-Oxooxazolidin-5-yl)Methyl-7-Isopropyl-1,4a-Dimethyl-1,2,3,4,4a,9,10,10a-Octahydrophenanthrene-1-Carboxylate]	15.7 ± 2.32 µM	5.82 ± 4.82 µM	26.55 ± 0.08 µM	44.5 ± 2.77 µM	27.6 ± 1.5 µM					
	CC(C)c1ccc2c(c1)CCC1[C@](C)(C(=O)OCC3CN(c4cccc(Br)c4)C(=O)O3)CCC[C@]21C (stereo partly drawn) [Compound 4m, (1R,4aS)-(3-(3-Bromophenyl)-2-Oxooxazolidin-5-yl)Methyl-7-Isopropyl-1,4a-Dimethyl-1,2,3,4,4a,9,10,10a-Octahydrophenanthrene-1-Carboxylate]	> 100 µM	9.8 ± 2.37 µM	25.1 ± 1.39 µM	34.2 ± 2.88 µM	> 100 µM					
	CC(C)c1ccc2c(c1)CCC1[C@](C)(C(=O)OCC3CN(c4ccc(Br)cc4)C(=O)O3)CCC[C@]21C (stereo partly drawn) [Compound 4n, (1R,4aS)-(3-(4-Bromophenyl)-2-Oxooxazolidin-5-yl)Methyl-7-Isopropyl-1,4a-Dimethyl-1,2,3,4,4a,9,10,10a-Octahydrophenanthrene-1-Carboxylate]	> 100 µM	5.34 ± 3.45 µM	30.2 ± 2.66 µM	> 100 µM	42.5 ± 5.68 µM					
125.2 to 130.4 °C	C#Cc1cccc(N2CC(COC(=O)[C@]3(C)CCC[C@]4(C)c5ccc(C(C)C)cc5CCC34)OC2=O)c1 (stereo partly drawn) [Compound 4o, (1R,4aS)-(3-(3-Ehynylphenyl)-2-Oxooxazolidin-5-yl)Methyl-7-Isopropyl-1,4a-Dimethyl-1,2,3,4,4a,9,10,10a-Octahydrophenanthrene-1-Carboxylate]	23.7 ± 2.02 µM	18.2 ± 2.36 µM	72.4 ± 1.07 µM	> 100 µM	51.4 ± 5.06 µM					
	CC(C)c1ccc2c(c1)CC[C@H]1[C@](C)(C(=O)O)CCC[C@]21C [DHA, Dehydroabietic acid]	> 100 µM	29.8 ± 2.06 µM	> 100 µM	> 100 µM	62.6 ± 1.6 µM					
	N.N.[Cl][Pt][Cl] [cisplatin, reference compound]						10.4 ± 0.25 µM	14.9 ± 1.78 µM	24.1 ± 1.74 µM	36.4 ± 0.79 µM	21 ± 2.25 µM
